The target of experiment [1] is T1, E3 ubiquitin-protein ligase XIAP (Homo sapiens, UniProt P98170). Briefly: small molecules displacing peptide from XIAP – biochemical, IAP family, fluorescence polarization (AID 1018). In kind it is functional.
Experiment [2] has as its target T1, E3 ubiquitin-protein ligase XIAP. Briefly: Counter Screen using XIAP-Bir3 for Chemical Antagonists of Bir1/2 domains of IAP-family anti-apoptotic proteins. [Related pubchem assays (depositor defined):AID1018, AID1449, AID1514, AID1638, AID1749, AID1750, AID488957, AID488963].
The target of another experiment is T2, Coagulation factor XII (Homo sapiens, UniProt P00748).
T2 sequence (P00748 whole entry): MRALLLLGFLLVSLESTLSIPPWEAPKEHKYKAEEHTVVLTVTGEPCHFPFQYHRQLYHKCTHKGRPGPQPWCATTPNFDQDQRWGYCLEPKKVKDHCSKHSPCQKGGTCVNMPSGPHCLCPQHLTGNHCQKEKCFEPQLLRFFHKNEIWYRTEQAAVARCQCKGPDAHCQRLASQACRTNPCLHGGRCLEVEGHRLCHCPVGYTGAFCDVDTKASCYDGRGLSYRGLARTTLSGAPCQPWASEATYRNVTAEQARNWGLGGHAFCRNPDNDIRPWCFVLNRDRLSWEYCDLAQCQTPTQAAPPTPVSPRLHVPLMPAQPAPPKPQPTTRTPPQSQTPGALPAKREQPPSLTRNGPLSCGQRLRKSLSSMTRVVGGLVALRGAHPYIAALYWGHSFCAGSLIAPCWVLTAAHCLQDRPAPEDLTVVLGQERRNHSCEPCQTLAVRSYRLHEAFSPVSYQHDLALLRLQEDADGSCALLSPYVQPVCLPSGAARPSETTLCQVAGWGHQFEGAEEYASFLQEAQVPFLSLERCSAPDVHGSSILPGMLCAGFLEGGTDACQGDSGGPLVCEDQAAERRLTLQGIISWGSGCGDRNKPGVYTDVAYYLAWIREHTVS
Briefly: Factor XIIa Dose Response Confirmation from Single Well HTS. [Related pubchem assays (depositor defined):AID701]. It is filed as functional.

For the next experiment, the system named is T-cell. Briefly: loss of vesicle association with mouse CD8+ T cells – mouse 2C CD8+ T cells, flow cytometry, dose response (AID 485284). It is filed as functional.
The next experiment addresses Troponin, cardiac muscle (Homo sapiens, UniProt P19429+P45379+P63316). Briefly: Fluorescence-based biochemical high throughput dose response assay for activators of the calcium sensitivity of cardiac Regulated Thin Filaments (RTF). [Related pubchem assays (depositor defined):AID493008, AID493018, AID504382, AID504383]. In kind it is protein-complex assay.
The nature of experiment [3]: toxicity toward cultured mammalian cells – cell-based, plate reader, cherry-pick samples, cytotoxicity control, dose response (AID 504397). It is filed as functional.
A short description of experiment [4]: Trypanosoma cruzi growth suppression in host cells – NIH3T3 host cells, beta-gal luminescence, confirmation (AID 2044).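 Also: intracellular parasites grown in NIH/3T3 mouse fibroblasts as host cells; luminescent beta-galactosidase reporter signal from transgenic T. cruzi replicating inside host cells; inhibitors lower the luminescence signal.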 It is filed as functional, cell-based.
The nature of experiment [5]: NIH3T3 cell viability loss – ATP luminescence, mouse fibroblasts, counter-screen, dose response (AID 2010).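 Also: cells exposed to compound for about 90 hours before reading.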 In kind it is functional, cell-based. (The purpose of a counterscreen is to sort out artefacts and off-target activity.)
The subject of the next experiment is Streptococcus. Briefly: GAS UMAA2166 growth inhibition – luminescence, BacTiterGlo, counter-screen for streptokinase expression inhibitor project, dose response (AID 1915).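 Also: potency for reduction of bacterial viability or growth.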 It is filed as functional, organism-based.
The next experiment has as its target T3, CAAX prenyl protease 2 (Homo sapiens, UniProt Q9Y256).
T3 sequence (Q9Y256 whole entry): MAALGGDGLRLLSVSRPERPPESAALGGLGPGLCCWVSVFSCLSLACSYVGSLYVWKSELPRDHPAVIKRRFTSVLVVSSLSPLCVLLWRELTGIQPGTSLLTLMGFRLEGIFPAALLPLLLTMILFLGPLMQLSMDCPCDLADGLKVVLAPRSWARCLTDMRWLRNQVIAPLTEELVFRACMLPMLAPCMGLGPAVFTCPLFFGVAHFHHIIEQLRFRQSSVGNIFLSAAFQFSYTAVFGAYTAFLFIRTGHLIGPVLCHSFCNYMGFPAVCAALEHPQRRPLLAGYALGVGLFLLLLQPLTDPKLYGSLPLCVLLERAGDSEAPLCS
Briefly: inhibition of Ras-converting CAAX protease Rce1 – biochemical, yeast membranes, quenched-peptide fluorescence, cherry-pick, dose response (AID 588849).

Experiment [6] relates to Streptococcus sp. 'group A'. Briefly: Streptococcus pyogenes SK(-)GAS viability under kanamycin – luminescence, BacTiterGlo, confirmation, counter-screen for streptokinase expression inhibitor project, dose response (AID 1900). In kind it is functional, organism-based.
The target in experiment [7] is T4, Tyrosine-protein phosphatase non-receptor type 22 (Homo sapiens, UniProt Q9Y2R2).
T4 sequence (Q9Y2R2 whole entry): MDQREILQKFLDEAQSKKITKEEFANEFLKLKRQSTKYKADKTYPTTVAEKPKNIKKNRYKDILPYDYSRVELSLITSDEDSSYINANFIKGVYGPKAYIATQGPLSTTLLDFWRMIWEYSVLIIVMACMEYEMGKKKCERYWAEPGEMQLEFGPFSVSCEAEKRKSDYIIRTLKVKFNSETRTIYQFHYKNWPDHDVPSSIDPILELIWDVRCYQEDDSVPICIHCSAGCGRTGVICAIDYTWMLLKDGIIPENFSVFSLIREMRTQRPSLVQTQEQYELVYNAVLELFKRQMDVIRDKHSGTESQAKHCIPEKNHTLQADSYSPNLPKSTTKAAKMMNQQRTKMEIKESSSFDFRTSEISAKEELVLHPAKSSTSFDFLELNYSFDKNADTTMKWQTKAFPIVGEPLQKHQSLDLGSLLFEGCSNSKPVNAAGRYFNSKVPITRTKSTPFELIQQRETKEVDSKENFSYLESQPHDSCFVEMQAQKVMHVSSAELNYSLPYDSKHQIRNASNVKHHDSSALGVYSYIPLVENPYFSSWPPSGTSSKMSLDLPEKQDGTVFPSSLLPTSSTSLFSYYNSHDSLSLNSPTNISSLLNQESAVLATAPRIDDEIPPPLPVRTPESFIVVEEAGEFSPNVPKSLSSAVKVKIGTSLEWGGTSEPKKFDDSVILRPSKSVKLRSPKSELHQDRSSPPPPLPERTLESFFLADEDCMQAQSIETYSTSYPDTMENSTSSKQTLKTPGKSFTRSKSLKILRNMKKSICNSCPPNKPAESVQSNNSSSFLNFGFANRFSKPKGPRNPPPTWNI
Briefly: SAR LYP1 Fluorescent Assay using OMFP substrate for In Vitro dose response studies - Set 3. [Related pubchem assays (depositor defined):AID1779, AID1784, AID2140, AID2686]. In kind it is functional.

Experiment [8] addresses Tyrosine-protein phosphatase non-receptor type 12 (Homo sapiens, UniProt Q05209). Briefly: SAR Selectivity Analysis of small molecule inhibitors of PEST using pCAP in a fluorescence assay. [Related pubchem assays (depositor defined):AID1779, AID1784, AID2135]. In kind it is functional.
For experiment [9], the target named is T5, Tyrosine-protein phosphatase non-receptor type 7 (Homo sapiens, UniProt P35236).
T5 sequence (P35236 whole entry): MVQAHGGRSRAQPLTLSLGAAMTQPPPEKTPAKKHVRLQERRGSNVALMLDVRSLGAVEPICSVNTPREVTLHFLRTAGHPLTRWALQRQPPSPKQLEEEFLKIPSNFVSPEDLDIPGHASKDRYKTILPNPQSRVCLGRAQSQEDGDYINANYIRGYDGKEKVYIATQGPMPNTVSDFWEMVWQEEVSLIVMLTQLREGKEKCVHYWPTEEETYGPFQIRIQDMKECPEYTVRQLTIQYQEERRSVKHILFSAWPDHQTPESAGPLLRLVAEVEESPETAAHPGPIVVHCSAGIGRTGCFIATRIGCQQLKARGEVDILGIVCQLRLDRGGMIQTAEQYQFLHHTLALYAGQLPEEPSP
Briefly: inhibition of hematopoietic tyrosine phosphatase HePTP – biochemical, set 2, SAR follow-up (AID 449736). It is filed as functional.

Experiment [10] has as its target T4, Tyrosine-protein phosphatase non-receptor type 22. Briefly: inhibition of lymphoid tyrosine phosphatase LYP – biochemical, pCAP fluorogenic substrate, fluorescence, set 3, SAR follow-up (AID 449727). In kind it is functional.
Experiment [11] shares this target. Briefly: SAR LYP1 Fluorescent Assay using OMFP substrate for In Vitro dose response studies - Set 2. [Related pubchem assays (depositor defined):AID1779, AID1784, AID2140, AID449726, AID488869]. It is filed as functional.
Experiment [12] has the same target. Briefly: SAR LYP1 Fluorescent Assay using pCAP substrate for In Vitro dose response studies - Set 2. [Related pubchem assays (depositor defined):AID1779, AID1784, AID2135, AID449727]. It is filed as functional.

Activity calls are given as the source filed them.

T1 sequence (P98170 whole entry): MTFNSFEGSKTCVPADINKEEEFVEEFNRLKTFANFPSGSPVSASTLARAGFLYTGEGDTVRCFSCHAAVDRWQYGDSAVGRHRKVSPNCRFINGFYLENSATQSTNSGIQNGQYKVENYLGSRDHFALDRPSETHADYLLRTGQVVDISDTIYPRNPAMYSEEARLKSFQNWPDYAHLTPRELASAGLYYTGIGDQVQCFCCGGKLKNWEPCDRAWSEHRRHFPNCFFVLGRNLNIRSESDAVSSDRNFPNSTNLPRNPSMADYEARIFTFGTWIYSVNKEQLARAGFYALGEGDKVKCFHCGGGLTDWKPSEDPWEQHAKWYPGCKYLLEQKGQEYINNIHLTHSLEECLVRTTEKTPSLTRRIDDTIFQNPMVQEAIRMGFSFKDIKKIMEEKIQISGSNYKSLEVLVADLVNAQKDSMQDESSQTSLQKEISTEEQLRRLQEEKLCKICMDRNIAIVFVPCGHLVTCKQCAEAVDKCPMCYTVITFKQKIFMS
Tyrosine-protein phosphatase non-receptor type 12, sequence (Q05209 whole entry): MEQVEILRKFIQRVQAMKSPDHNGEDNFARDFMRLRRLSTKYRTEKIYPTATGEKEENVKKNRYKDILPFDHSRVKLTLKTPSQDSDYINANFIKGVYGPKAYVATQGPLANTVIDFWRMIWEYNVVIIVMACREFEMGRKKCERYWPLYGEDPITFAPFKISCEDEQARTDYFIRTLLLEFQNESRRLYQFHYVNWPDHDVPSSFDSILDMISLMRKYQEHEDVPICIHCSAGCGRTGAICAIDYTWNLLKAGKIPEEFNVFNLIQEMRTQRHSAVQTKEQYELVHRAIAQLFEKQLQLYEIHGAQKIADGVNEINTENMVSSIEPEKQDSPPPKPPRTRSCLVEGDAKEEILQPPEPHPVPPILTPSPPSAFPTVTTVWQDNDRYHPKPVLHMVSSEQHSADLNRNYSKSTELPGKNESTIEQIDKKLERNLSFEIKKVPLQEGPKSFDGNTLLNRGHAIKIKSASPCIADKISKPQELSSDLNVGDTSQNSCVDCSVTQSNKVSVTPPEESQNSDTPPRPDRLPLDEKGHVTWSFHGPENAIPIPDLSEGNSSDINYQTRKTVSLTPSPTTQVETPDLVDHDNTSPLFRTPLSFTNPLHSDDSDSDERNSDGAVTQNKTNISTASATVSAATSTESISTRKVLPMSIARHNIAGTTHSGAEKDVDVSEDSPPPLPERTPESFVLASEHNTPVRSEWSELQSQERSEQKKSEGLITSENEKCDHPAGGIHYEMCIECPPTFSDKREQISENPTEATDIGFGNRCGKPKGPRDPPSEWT

With `CC(=O)NCCc1nc2ccccc2n1CCc1ccccc1`, the IC50 in experiment [1] is > 100 µM (not active); in experiment [2], > 100 µM (inactive).

For `CC(C)C(C)(C#N)NC(=O)CSc1nnc(C(F)(F)F)n1C` (configuration not stated), the IC50 at Coagulation factor XII is > 50 µM (inactive).

Turning to `CCOC(=O)c1c(C=O)c2ccccc2n1CC`, the EC50 with T-cell is 27.8 µM (inactive).

Consider `Cc1ccnc2nc(C(=O)OCC(=O)NCCc3ccccc3)nn12`, for which, at Troponin, cardiac muscle, the EC50 is > 71.5 µM (inactive).

On to `C/C(Cl)=C\Cn1c(O)c(/N=N/C(=N)S)c2cc(Br)ccc21`, for which the AC50 in experiment [3] was 281 µM (active); at CAAX prenyl protease 2, 12.6 µM (active). Also, the concentration for a half-maximal effect (EC50) in experiment [4] was 1.32 µM (active); in [5], > 30 µM (not active); with Streptococcus it was 3.93 µM (active); in experiment [6], 1.26 µM (active).

As to `CCOc1cc(C=NNC(=O)c2ccc(-c3csc(Nc4ccc(C)cc4)n3)cc2)ccc1OCC(=O)O`, the IC50 was 1.04 µM (active) in [7]; 1 µM (active) in experiment [8]; 1.91 µM (active) in experiment [9]; 4.27 µM (active) in experiment [10]; 5.13 µM (active) in [11]; 4.42 µM (active) in [12].

For orientation: IC50 means the concentration at which inhibition is half-maximal. By EC50 is commonly meant the concentration needed to bring the measured effect to its halfway point. The term AC50 denotes the concentration giving half of the maximal activity seen.

The record behind these values is ChEMBL document CHEMBL1201862, “PubChem BioAssay data set” (2004).
